The test has as its target human P2X7 (Homo sapiens (Human), UniProt Q99572). The test can be described thus: Human P2X7 functional assay (Ca2+ influx, Fluo-4, FDSS). The format is cell-based. Conditions: antagonistic activity with respect to the human P2X7 receptor; BzATP final concentration 80 microM. How it is done:
The ability of the 5,6,7,8-tetrahydroquinoline and 6,7-dihydro-5H-cyclopenta[b]pyridine derivatives of the formula (I) to inhibit the P2X7 channel was measured by Ca^2+ influx assay and electrophysiology assay described below.
Human P2X7 Functional Assay
The functional activity of compounds was determined by measuring changes in intracellular calcium concentration using a Ca^2+-sensitive fluorescent dye, Fluo-4 (Molecular Probes). The changes in fluorescent signal were monitored by the cell imaging technology by Hamamatsu Photonics's Functional Drug Screening System (FDSS). Increases in intracellular Ca^2+ concentration were readily detected upon activation with BzATP.
HEK293 cells stably expressing human P2X7 (GenBank accession number BC011913) carrying a C-terminal FLAG tag were grown in T225 flasks, in a 5% CO2 humidified incubator to about 80% confluence. Media composition consisted of Dulbecco's Modified Eagle Medium (high glucose), 10% fetal bovine serum ([…]), 100 units/[…] Penicillin, 100 microg/mL Streptomycin and 250 microg/mL Geneticine.
1. Plate-out HEK293-human P2X7 cells (40 microL medium containing 10,000 cells per well) into poly-D-lysine coated 384-well plates (Corning) at 24 h prior to assay.
2. Incubate at 37° C. in 5% CO2.
3. Incubate the plate at 37° C. in 5% CO2 for 1 h.
5. Test compounds were prepared at 100× the test concentration in DMSO by serial dilution with Biomek-FX liquid handling instrument. 33× diluted compound solutions in assay buffer were prepared in intermediate compound plate with Biomek-NX liquid handling instrument. A further 3× dilution occurred in below steps 6 and 7.
6. Add 20 microL of 33× diluted compound solutions into each well and leave the plate for 10 min under the dark at room temperature.
7. Measure activity by FDSS as follows: • Set the assay plate on the stacker of FDSS. • Start the detection of fluorescence intensity at 540 nm by 480 nm exicitation. • After 30 seconds, add 20 microL of assay buffer containing 240 microM BzATP (final concentration 80 microM).
IC50 values for compounds of the present invention were determined from 7-point dose-response studies. Curves were generated using the average of duplicate wells for each data point. Finally, the IC50 values are calculated with the best-fit dose curve determined by XLfit (ID Business Solutions Ltd.).

SMILES strings stand for the structures.

What is called IC50 is the concentration that inhibits the measured activity by half.

Chain of human P2X7 (Q99572 whole entry): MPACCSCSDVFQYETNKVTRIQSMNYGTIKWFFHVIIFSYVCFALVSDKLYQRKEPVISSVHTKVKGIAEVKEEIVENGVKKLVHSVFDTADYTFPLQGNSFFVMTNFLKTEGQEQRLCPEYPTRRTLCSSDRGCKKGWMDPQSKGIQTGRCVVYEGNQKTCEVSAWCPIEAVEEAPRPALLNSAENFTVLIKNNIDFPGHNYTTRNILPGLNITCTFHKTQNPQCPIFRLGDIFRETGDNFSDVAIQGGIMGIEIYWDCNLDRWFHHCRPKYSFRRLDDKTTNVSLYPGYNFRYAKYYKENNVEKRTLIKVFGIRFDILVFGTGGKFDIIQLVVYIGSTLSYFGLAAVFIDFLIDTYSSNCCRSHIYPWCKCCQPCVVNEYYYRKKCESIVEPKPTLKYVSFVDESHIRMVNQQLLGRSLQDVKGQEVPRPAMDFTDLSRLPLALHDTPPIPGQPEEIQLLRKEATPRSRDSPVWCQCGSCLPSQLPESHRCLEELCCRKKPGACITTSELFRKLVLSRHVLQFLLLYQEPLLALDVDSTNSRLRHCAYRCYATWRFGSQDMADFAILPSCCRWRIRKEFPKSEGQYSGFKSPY

Regarding `O=C(NCc1c(Cl)cc(Cl)cc1CO)[C@@]1(F)CC[C@H](O)c2ncccc21` [Example 103, (5R,8S)-N-(2,4-dichloro-6-hydroxymethylbenzyl)-5-fluoro-8-hydroxy-5,6,7,8-tetrahydroquinoline-5-carboxamide], the IC50 was 101 to 300 nM.

On to `O=C(NCc1ccc(Cl)cc1Cl)[C@@]1(F)CC[C@H](O)c2ncccc21` [Example 105, (5R,8S)-N-(2,4-dichlorobenzyl)-5-fluoro-8-hydroxy-5,6,7,8-tetrahydroquinoline-5-carboxamide], for which the half-inhibitory concentration (IC50) lay in the range of 301 to 1000 nM.

`O=C(NCc1ccc(F)cc1F)[C@]1(F)CC[C@@H](O)c2ncccc21` [Example 109, (5S,8R)-N-(2,4-difluoro-benzyl)-5-fluoro-8-hydroxy-5,6,7,8-tetrahydroquinoline-5-carboxamide] registered an IC50 of 301 to 1000 nM.

`O=C(NCc1c(Cl)cc(C(F)(F)F)cc1Cl)[C@@]1(F)CC[C@H](O)c2ncccc21` [Example 112, (5R,8S)-N-(2,6-dichloro-4-(trifluoromethyl)benzyl)-5-fluoro-8-hydroxy-5,6,7,8-tetrahydroquinoline-5-carboxamide] returned an IC50 of 101 to 300 nM.

On to `O=C(NCc1c(Cl)cc(C(F)(F)F)cc1Cl)[C@]1(F)CC[C@@H](O)c2ncccc21` [Example 113, (5S,8R)-N-(2,6-dichloro-4-(trifluoromethyl)benzyl)-5-fluoro-8-hydroxy-5,6,7,8-tetrahydroquinoline-5-carboxamide], for which the IC50 is < 50 nM.

The molecule `O=C(NCc1c(Cl)cc(Cl)cc1C(F)F)[C@@]1(F)CC[C@H](O)c2ncccc21` [Example 114] registered an IC50 of 101 to 300 nM.

Take `O=C(NCc1c(F)cc(Cl)cc1Cl)[C@@]1(F)CC[C@H](O)c2ncccc21` [Example 116, (5R,8S)-N-(2,4-dichloro-6-fluorobenzyl)-5-fluoro-8-hydroxy-5,6,7,8-tetrahydroquinoline-5-carboxamide]: the IC50 lay within 301 to 1000 nM.

Regarding `C[C@@H](NC(=O)[C@]1(F)CC[C@@H](O)c2ncccc21)c1ccc(Cl)cc1Cl` [Example 119, (5S-8R)-N-((R)-1-(2,4-dichlorophenyl)ethyl)-5-fluoro-8-hydroxy-5,6,7,8-tetrahydroquinoline-5-carboxamide], the IC50 was < 50 nM.

In the case of `O=C(NCc1cccc(Cl)c1Cl)[C@@]1(F)CC[C@H](O)c2ncccc21` [Example 120, (5R,8S)-N-(2,3-dichlorobenzyl)-5-fluoro-8-hydroxy-5,6,7,8-tetrahydroquinoline-5-carboxamide], the 50% inhibitory concentration (IC50) was 1000 to 3000 nM.

Molecule `O=C(NCc1cc(F)c(F)cc1Cl)[C@]1(F)CC[C@@H](O)c2ncccc21` [Example 123, (5S,8R)-N-(2-chloro-4,5-difluorobenzyl)-5-fluoro-8-hydroxy-5,6,7,8,- tetrahydroqunioline-5-carboxamide] displayed an IC50 of 101 to 300 nM.

Regarding `O=C(NCc1c(Cl)ccc(Cl)c1Cl)[C@]1(F)CC[C@@H](O)c2ncccc21` [Example 124, (5S,8R)-5-fluoro-8-hydroxy-N-(2,3,6-trichlorobenzyl)-5,6,7,8,- tetrahydroquinoline-5-carboxamide], the IC50 fell in the range of 101 to 300 nM.

The molecule `Cc1ccc(CNC(=O)[C@]2(F)CC[C@@H](O)c3ncccc32)c(Cl)c1` [Example 125, (5S,8R)-N-(2-chloro-4-methylbenzyl)-5-fluoro-8-hydroxy-5,6,7,8-hydroquinoline-5-carboxamide] displayed an IC50 of 101 to 300 nM.

For the molecule `O=C(NCc1c(Cl)cccc1Cl)[C@@]1(F)CC[C@@H](O)c2ncccc21` [Example 138, (5R,8R)-N-(2,6-dichlorobenzyl)-5-fluoro-8-hydroxy-5,6,7,8-tetrahydroquinoline-5-carboxamide], the IC50 is 101 to 300 nM.

On to `O=C(NCc1ccc(F)cc1F)[C@@]1(F)CC[C@@H](O)c2ncccc21` [Example 140, (5R,8R)-N-(2,4-difluorobenzyl)-5-fluoro-8-hydroxy-5,6,7,8-tetrahydroquinoline-5-carboxamide], for which the concentration for half-maximal inhibition (IC50) was 301 to 1000 nM.

For `O=C(NCc1ccc(F)cc1C(F)(F)F)[C@@]1(F)CC[C@@H](O)c2ncccc21` [Example 143, (5R,8R)-5-fluoro-N-(4-fluoro-2-(trifluoromethyl)benzyl)-8-hydroxy-5,6,7,8-tetrahydroquinoline-5-carboxamide], the IC50 lay in the range of 301 to 1000 nM.

As to `O=C(NCc1ccc(Cl)cc1F)[C@@]1(F)CC[C@@H](O)c2ncccc21` [Example 145, (5R,8R)-N-(4-chloro-2-fluorobenzyl)-5-fluoro-8-hydroxy-5,6,7,8-tetrahydroquinoline-5-carboxamide], the IC50 lay in the range of 101 to 300 nM.

Regarding `O=C(NCc1c(Cl)cc(C(F)(F)F)cc1Cl)[C@@]1(F)CC[C@@H](O)c2ncccc21` [Example 147, (5R,8R)-N-(2,6-dichloro-4-(trifluoromethyl)benzyl)-5-fluoro-8-hydroxy-5,6,7,8-tetrahydroquinoline-5-carboxamide], the IC50 was < 50 nM.

In the case of `O=C(NCc1c(F)cc(Cl)cc1Cl)[C@@]1(F)CC[C@@H](O)c2ncccc21` [Example 151, (5R,8R)-N-(2,4-dichloro-6-fluorobenzyl)-5-fluoro-8-hydroxy-5,6,7,8-tetrahydroquinoline-5-carboxamide], the IC50 is < 50 nM.

With `C[C@@H](NC(=O)[C@@]1(F)CC[C@@H](O)c2ncccc21)c1ccc(Cl)cc1Cl` [Example 155, (5R,8R)-N-((R)-1-(2,4-dichlorophenyl)ethyl)-5-fluoro-8-hydroxy-5,6,7,8-tetrahydroquinoline-5-carboxamide], the IC50 lay within 50 to 100 nM.

Turning to `O=C(NCc1ccc(Cl)cc1C(F)(F)F)[C@@]1(F)CC[C@@H](O)c2ncccc21` [Example 156, (5R,8R)-N-(4-chloro-2-(trifluoromethyl)benzyl)-5-fluoro-8-hydroxy-5,6,7,8-tetrahydroquinoline-5-carboxamide], the IC50 was in the range of 101 to 300 nM.

With `Cc1cccc(Cl)c1CNC(=O)[C@@]1(F)CC[C@@H](O)c2ncccc21` [Example 160, (5R,8R)-N-(2-chloro-6-methylbenzyl)-5-fluoro-8-hydroxy-5,6,7,8-tetrahydroquinoline-5-carboxamide], the IC50 fell in the range of 101 to 300 nM.

For `O=C(NCc1cc(F)c(F)cc1Cl)[C@@]1(F)CC[C@@H](O)c2ncccc21` [Example 162, (5R,8R)-N-(2-chloro-4,5-difluorobenzyl)-5-fluoro-8-hydroxy-5,6,7,8-tetrahydroquinoline-5-carboxamide], the IC50 lay within 101 to 300 nM.

For the molecule `O=C(NCc1c(Cl)ccc(Cl)c1Cl)[C@@]1(F)CC[C@@H](O)c2ncccc21` [Example 164, (5R,8R)-5-fluoro-8-hydroxy-N-(2,3,6-trichlorobenzyl)-5,6,7,8-tetrahydroquinoline-5-carboxamide], the half-maximal inhibitory concentration (IC50) lay in the range of 101 to 300 nM.

In the case of `Cc1ccc(CNC(=O)[C@@]2(F)CC[C@@H](O)c3ncccc32)c(Cl)c1` [Example 166, (5R,8R)-N-(2-chloro-4-methylbenzyl)-5-fluoro-8-hydroxy-5,6,7,8-tetrahydroquinoline-5-carboxamide], the IC50 lay within 101 to 300 nM.

In turn, `O=C(NCc1cc(Cl)ccc1Cl)[C@]1(F)CC[C@H](O)c2ncccc21` [Example 173, (5S,8S)-N-(2,5-dichlorobenzyl)-5-fluoro-8-hydroxy-5,6,7,8-tetrahydroquinoline-5-carboxamide] returned an IC50 of 50 to 100 nM.

`O=C(NCc1ccc(F)c(Cl)c1)[C@]1(F)CC[C@H](O)c2ncccc21` [Example 188, (5S,8S)-N-(3-chloro-4-fluorobenzyl)-5-fluoro-8-hydroxy-5,6,7,8-tetrahydroquinoline-5-carboxamide]: the IC50 is < 50 nM.

As to `O=C(NCc1ncc(C(F)(F)F)cc1Cl)[C@]1(F)CC[C@H](O)c2ncccc21` [Example 194, (5S,8S)-N-((3-chloro-5-(trifluoromethyl)pyridin-2-yl)methyl)-5-fluoro-8-hydroxy-5,6,7,8-tetrahydroquinoline-5-carboxamide], the IC50 was < 50 nM.

Take `O=C(NCc1ccc(Cl)c(Cl)c1)[C@]1(F)CC[C@H](O)c2ncccc21` [Example 197, (5S,8S)-N-(3,4-dichlorobenzyl)-5-fluoro-8-hydroxy-5,6,7,8-tetrahydroquinoline-5-carboxamide]: the IC50 is < 50 nM.

Regarding `COc1cccc(Cl)c1CNC(=O)[C@]1(F)CC[C@H](O)c2ncccc21` [Example 198, (5S,8S)-N-(2-chloro-6-methoxybenzyl)-5-fluoro-8-hydroxy-5,6,7,8-tetrahydroquinoline-5-carboxamide], the IC50 is < 50 nM.

`O=C(NCc1cc(F)c(F)c(F)c1)[C@]1(F)CC[C@H](O)c2ncccc21` [Example 200, (5S,8S)-5-fluoro-8-hydroxy-N-(3,4,5-trifluorobenzyl)-5,6,7,8-tetrahydroquinoline-5-carboxamide]: the IC50 lay in the range of 50 to 100 nM.

(Values after US11077100B2, “Tetrahydroquinoline derivatives as P2X7 receptor antagonists” (RaQualia Pharma Inc., priority 2017, dated 2021).)
